From US20250163104A1, “MACROCYCLIC IMMUNOMODULATORS” (priority 2021, published 2025)
Where a SMILES comes first, the peptide text is derived from it. Bridges are numbered along the chain shown (N, C = ends). [ ]: non-standard residue; d: D form. Bip = N[C@@H](Cc1ccc(-c2ccccc2)cc1)C(=O)O; Orn = NCCC[C@H](N)C(=O)O; Dab = NCC[C@H](N)C(=O)O; Dap = NC[C@H](N)C(=O)O

Molecular target: T1, human PD-1 / PD-L1-Ig binding on Jurkat cell line over-expressing human PD-1 (Jurkat-PD-1) (Homo sapiens, UniProt Q15116)
T1 construct: expressed in transfected cells; host or cells: Jurkat
Assay: Jurkat-PD-1 Cell Binding High-Content Screening Assay (CBA)
Type: cell-based
Settings: Jurkat HPD1_PDL1 IC50, Jurkat-PD-1 cells, PE-labeled PD-L1-Ig 20 nM final
Outline: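 Binding of fluorescent PD-L1-Ig (phycoerythrin linked via the Ig tag, 20 nM final) to PD-1-overexpressing Jurkat cells was imaged after a 2 h, 37° C compound pretreatment and 1 hour ligand incubation.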

T1 sequence (Q15116 25-288): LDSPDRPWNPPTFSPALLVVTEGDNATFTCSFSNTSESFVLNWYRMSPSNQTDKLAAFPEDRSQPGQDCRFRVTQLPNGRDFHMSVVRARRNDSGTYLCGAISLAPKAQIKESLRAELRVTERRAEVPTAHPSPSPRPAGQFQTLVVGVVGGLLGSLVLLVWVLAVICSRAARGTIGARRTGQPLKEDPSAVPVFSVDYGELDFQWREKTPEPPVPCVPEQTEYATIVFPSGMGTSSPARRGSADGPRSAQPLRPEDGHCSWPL

Compound	IC50
CC(C)C[C@@H]1NC(=O)[C@H](Cc2c[nH]c3ccccc23)NC(=O)[C@H](CC(=O)O)NC(=O)[C@H](Cc2ccc(O)cc2)NC(=O)[C@H](Cc2ccccc2)NC(=O)CSC[C@@H](C(=O)NCC(N)=O)NC(=O)[C@H]([C@@H](C)O)NC(=O)[C@H](C(C)C)NC(=O)[C@H](CC(C)C)NC(=O)[C@H](CC(N)=O)NC(=O)[C@@H](C)NC(=O)[C@H](CN)NC(=O)[C@H](C(C)C)NC(=O)[C@H](Cc2ccc(-c3ccccc3)cc2)NC1=O [Compound 1074] ({CH2CO}-FYDWL[Bip]V[Dap][dA]NLVTCG-NH2; thioether N-14)	124 nM

Same assay, conditions: Jurkat-PD-1 cells, PE-labeled PD-L1-Ig 20 nM final; read-out: Jurkat HPD1_PDL1 IC50

Compound	IC50
CC(C)C[C@@H]1NC(=O)[C@H](Cc2c[nH]c3ccccc23)NC(=O)[C@H](CC(=O)O)NC(=O)[C@H](Cc2ccc(O)cc2)NC(=O)[C@H](Cc2ccccc2)NC(=O)CSC[C@@H](C(=O)NCC(N)=O)NC(=O)[C@H]([C@@H](C)O)NC(=O)[C@H](C(C)C)NC(=O)[C@H](CC(C)C)NC(=O)[C@H](CCN)NC(=O)[C@@H](CC(C)C)NC(=O)[C@H](CCCN)NC(=O)[C@H](C(C)C)NC(=O)[C@H](Cc2ccc(-c3ccccc3)cc2)NC1=O [Compound 1068] ({CH2CO}-FYDWL[Bip]V[Orn][dL][Dab]LVTCG-NH2; thioether N-14)	17.4 nM
CC(C)C[C@@H]1NC(=O)[C@H](Cc2c[nH]c3ccccc23)NC(=O)[C@H](CC(=O)O)NC(=O)[C@H](Cc2ccc(O)cc2)NC(=O)[C@H](Cc2ccccc2)NC(=O)CSC[C@@H](C(=O)N[C@@H](C)C(N)=O)NC(=O)[C@H](CO)NC(=O)[C@H](C(C)C)NC(=O)[C@H](CC(C)C)NC(=O)[C@H](CCN)NC(=O)[C@@H](CC(C)C)NC(=O)[C@H](CCCN)NC(=O)[C@H](C(C)C)NC(=O)[C@H](Cc2ccc(-c3ccccc3)cc2)NC1=O [Compound 1069] ({CH2CO}-FYDWL[Bip]V[Orn][dL][Dab]LVSCA-NH2; thioether N-14)	13.9 nM
CC(C)C[C@@H]1NC(=O)[C@H](Cc2c[nH]c3ccccc23)NC(=O)[C@H](CC(=O)O)NC(=O)[C@H](Cc2ccc(O)cc2)NC(=O)[C@H](Cc2ccccc2)NC(=O)CSC[C@@H](C(=O)NCC(N)=O)NC(=O)[C@H]([C@@H](C)O)NC(=O)[C@H](C(C)C)NC(=O)[C@H](CC(C)C)NC(=O)[C@H](CC(N)=O)NC(=O)[C@@H](CC(C)C)NC(=O)[C@H](CN)NC(=O)[C@H](C(C)C)NC(=O)[C@H](Cc2ccc(-c3ccccc3)cc2)NC1=O [Compound 1070] ({CH2CO}-FYDWL[Bip]V[Dap][dL]NLVTCG-NH2; thioether N-14)	38.8 nM
CC(C)C[C@@H]1NC(=O)[C@H](Cc2c[nH]c3ccccc23)NC(=O)[C@H](CC(=O)O)NC(=O)[C@H](Cc2ccc(O)cc2)NC(=O)[C@H](Cc2ccccc2)NC(=O)CSC[C@@H](C(=O)N[C@@H](C)C(N)=O)NC(=O)[C@H]([C@@H](C)O)NC(=O)[C@H](C(C)C)NC(=O)[C@H](CC(C)C)NC(=O)[C@H](CCN)NC(=O)[C@@H](CC(C)C)NC(=O)[C@H](CCCN)NC(=O)[C@H](C(C)C)NC(=O)[C@H](Cc2ccc(-c3ccccc3)cc2)NC1=O [Compound 1072] ({CH2CO}-FYDWL[Bip]V[Orn][dL][Dab]LVTCA-NH2; thioether N-14)	27.1 nM
CC(C)C[C@@H]1NC(=O)[C@H](Cc2c[nH]c3ccccc23)NC(=O)[C@H](CC(=O)O)NC(=O)[C@H](Cc2ccc(O)cc2)NC(=O)[C@H](Cc2ccccc2)NC(=O)CSC[C@@H](C(=O)NCC(N)=O)NC(=O)[C@H](CO)NC(=O)[C@H](C(C)C)NC(=O)[C@H](CC(C)C)NC(=O)[C@H](CCN)NC(=O)[C@@H](CC(C)C)NC(=O)[C@H](CCCN)NC(=O)[C@H](C(C)C)NC(=O)[C@H](Cc2ccc(-c3ccccc3)cc2)NC1=O [Compound 1073] ({CH2CO}-FYDWL[Bip]V[Orn][dL][Dab]LVSCG-NH2; thioether N-14)	10 nM
CC(C)C[C@@H]1NC(=O)[C@H](Cc2c[nH]c3ccccc23)NC(=O)[C@H](CC(=O)O)NC(=O)[C@H](Cc2ccc(O)cc2)NC(=O)[C@H](Cc2ccccc2)NC(=O)CSC[C@@H](C(=O)N[C@@H](C)C(N)=O)NC(=O)[C@H](CO)NC(=O)[C@H](C(C)C)NC(=O)[C@H](CC(C)C)NC(=O)[C@H](CC(N)=O)NC(=O)[C@@H](C)NC(=O)[C@H](CN)NC(=O)[C@H](C(C)C)NC(=O)[C@H](Cc2ccc(-c3ccccc3)cc2)NC1=O [Compound 1075] ({CH2CO}-FYDWL[Bip]V[Dap][dA]NLVSCA-NH2; thioether N-14)	50.1 nM
CC(C)C[C@@H]1NC(=O)[C@H](Cc2c[nH]c3ccccc23)NC(=O)[C@H](CC(=O)O)NC(=O)[C@H](Cc2ccc(O)cc2)NC(=O)[C@H](Cc2ccccc2)NC(=O)CSC[C@@H](C(=O)N[C@@H](C)C(N)=O)NC(=O)[C@H]([C@@H](C)O)NC(=O)[C@H](C(C)C)NC(=O)[C@H](CC(C)C)NC(=O)[C@H](CC(N)=O)NC(=O)[C@@H](C)NC(=O)[C@H](CN)NC(=O)[C@H](C(C)C)NC(=O)[C@H](Cc2ccc(-c3ccccc3)cc2)NC1=O [Compound 1076] ({CH2CO}-FYDWL[Bip]V[Dap][dA]NLVTCA-NH2; thioether N-14)	68.7 nM
CC(C)C[C@@H]1NC(=O)[C@H](Cc2c[nH]c3ccccc23)NC(=O)[C@H](CC(=O)O)NC(=O)[C@H](Cc2ccc(O)cc2)NC(=O)[C@H](Cc2ccccc2)NC(=O)CSC[C@@H](C(=O)NCC(N)=O)NC(=O)[C@H](CO)NC(=O)[C@H](C(C)C)NC(=O)[C@H](CC(C)C)NC(=O)[C@H](CC(N)=O)NC(=O)[C@@H](C)NC(=O)[C@H](CN)NC(=O)[C@H](C(C)C)NC(=O)[C@H](Cc2ccc(-c3ccccc3)cc2)NC1=O [Compound 1077] ({CH2CO}-FYDWL[Bip]V[Dap][dA]NLVSCG-NH2; thioether N-14)	46.7 nM
CC(C)C[C@@H]1NC(=O)[C@H](Cc2c[nH]c3ccccc23)NC(=O)[C@H](CC(=O)O)NC(=O)[C@H](Cc2ccc(O)cc2)NC(=O)[C@H](Cc2ccccc2)NC(=O)CSC[C@@H](C(=O)NCC(N)=O)NC(=O)[C@H]([C@@H](C)O)NC(=O)[C@H](C(C)C)NC(=O)[C@H](CC(C)C)NC(=O)[C@H](CCN)NC(=O)[C@@H](C)NC(=O)[C@H](CN)NC(=O)[C@H](C(C)C)NC(=O)[C@H](Cc2ccc(-c3ccccc3)cc2)NC1=O [Compound 1078] ({CH2CO}-FYDWL[Bip]V[Dap][dA][Dab]LVTCG-NH2; thioether N-14)	40.2 nM
CC(C)C[C@@H]1NC(=O)[C@H](Cc2c[nH]c3ccccc23)NC(=O)[C@H](CC(=O)O)NC(=O)[C@H](Cc2ccc(O)cc2)NC(=O)[C@H](Cc2ccccc2)NC(=O)CSC[C@@H](C(=O)N[C@@H](C)C(N)=O)NC(=O)[C@H](CO)NC(=O)[C@H](C(C)C)NC(=O)[C@H](CC(C)C)NC(=O)[C@H](CCN)NC(=O)[C@@H](C)NC(=O)[C@H](CN)NC(=O)[C@H](C(C)C)NC(=O)[C@H](Cc2ccc(-c3ccccc3)cc2)NC1=O [Compound 1079] ({CH2CO}-FYDWL[Bip]V[Dap][dA][Dab]LVSCA-NH2; thioether N-14)	29.5 nM
CC(C)C[C@@H]1NC(=O)[C@H](CCN)NC(=O)[C@@H](CC(C)C)NC(=O)[C@H](CCN)NC(=O)[C@H](C(C)C)NC(=O)[C@H](Cc2ccc(-c3ccccc3)cc2)NC(=O)[C@H](C(C)C)NC(=O)[C@H](Cc2c[nH]c3ccccc23)NC(=O)[C@H](CC(N)=O)NC(=O)[C@H](Cc2ccc(O)cc2)NC(=O)[C@H](CC(N)=O)NC(=O)CSC[C@@H](C(=O)N[C@@H](C)C(N)=O)NC(=O)[C@H](CO)NC(=O)[C@H](C(C)C)NC1=O [Compound 1080] ({CH2CO}-NYNWV[Bip]V[Dab][dL][Dab]LVSCA-NH2; thioether N-14)	47.1 nM
CC(C)C[C@@H]1NC(=O)[C@H](CCN)NC(=O)[C@@H](CC(C)C)NC(=O)[C@H](CCCN)NC(=O)[C@H](C(C)C)NC(=O)[C@H](Cc2ccc(-c3ccccc3)cc2)NC(=O)[C@H](C(C)C)NC(=O)[C@H](Cc2c[nH]c3ccccc23)NC(=O)[C@H](CC(N)=O)NC(=O)[C@H](Cc2ccc(O)cc2)NC(=O)[C@H](CC(N)=O)NC(=O)CSC[C@@H](C(=O)NCC(N)=O)NC(=O)[C@H](CO)NC(=O)[C@H](C(C)C)NC1=O [Compound 1081] ({CH2CO}-NYNWV[Bip]V[Orn][dL][Dab]LVSCG-NH2; thioether N-14)	28.6 nM
CC(C)C[C@@H]1NC(=O)[C@H](CCN)NC(=O)[C@@H](CC(C)C)NC(=O)[C@H](CCCCN)NC(=O)[C@H](C(C)C)NC(=O)[C@H](Cc2ccc(-c3ccccc3)cc2)NC(=O)[C@H](C(C)C)NC(=O)[C@H](Cc2c[nH]c3ccccc23)NC(=O)[C@H](CC(N)=O)NC(=O)[C@H](Cc2ccc(O)cc2)NC(=O)[C@H](CC(N)=O)NC(=O)CSC[C@@H](C(=O)NCC(N)=O)NC(=O)[C@H](CO)NC(=O)[C@H](C(C)C)NC1=O [Compound 1082] ({CH2CO}-NYNWV[Bip]VK[dL][Dab]LVSCG-NH2; thioether N-14)	41.5 nM
CC(C)C[C@@H]1NC(=O)[C@H](CCN)NC(=O)[C@@H](CC(C)C)NC(=O)[C@H](CCN)NC(=O)[C@H](C(C)C)NC(=O)[C@H](Cc2ccc(-c3ccccc3)cc2)NC(=O)[C@H](C(C)C)NC(=O)[C@H](Cc2c[nH]c3ccccc23)NC(=O)[C@H](CC(N)=O)NC(=O)[C@H](Cc2ccc(O)cc2)NC(=O)[C@H](CC(N)=O)NC(=O)CSC[C@@H](C(=O)NCC(N)=O)NC(=O)[C@H](CO)NC(=O)[C@H](C(C)C)NC1=O [Compound 1083] ({CH2CO}-NYNWV[Bip]V[Dab][dL][Dab]LVSCG-NH2; thioether N-14)	16.8 nM
CC(C)C[C@@H]1NC(=O)[C@H](CCN)NC(=O)[C@@H](CC(C)C)NC(=O)[C@H](CCCN)NC(=O)[C@H](C(C)C)NC(=O)[C@H](Cc2ccc(-c3ccccc3)cc2)NC(=O)[C@H](C(C)C)NC(=O)[C@H](Cc2c[nH]c3ccccc23)NC(=O)[C@H](CC(N)=O)NC(=O)[C@H](Cc2ccc(O)cc2)NC(=O)[C@H](CC(N)=O)NC(=O)CSC[C@@H](C(=O)NCC(N)=O)NC(=O)[C@H]([C@@H](C)O)NC(=O)[C@H](C(C)C)NC1=O [Compound 1084] ({CH2CO}-NYNWV[Bip]V[Orn][dL][Dab]LVTCG-NH2; thioether N-14)	28.9 nM
